Measured values from EP4471048A1, “PEPTIDE INHIBITORS OF INTERLEUKIN-23 RECEPTOR” (Zealand Pharma A/S, priority 2023, dated 2024).
Where two headings read alike, the source gives them in different places. *1 amine or outer side, *2 acyl side, *3 side chain or, on linkers, in order; H or OH if unused. Where a SMILES comes first, the peptide text is derived from it. Bridges are numbered along the chain shown (N, C = ends). [ ]: non-standard residue; d: D form. X7 = O=C(C[C@H](CCCN[*:3])N[*:2])[*:1]; 2Nal = N[C@@H](Cc1ccc2ccccc2c1)C(=O)O; AEF = NCCOc1ccc(C[C@H](N)C(=O)O)cc1; 3Pal = N[C@@H](Cc1cccnc1)C(=O)O; αMeL = CC(C)C[C@](C)(N)C(=O)O; CH2COCH2 = O=C(C[*:1])C[*:2]; Dab = NCC[C@H](N)C(=O)O

Legend:
human IL-23R = target: T1, human IL-23R (Homo sapiens, UniProt Q5VWK5); test: biochemical; details: for Emax: read-out: % displacement (hIL-23R NIuc)
T1 sequence (Q5VWK5 22-629): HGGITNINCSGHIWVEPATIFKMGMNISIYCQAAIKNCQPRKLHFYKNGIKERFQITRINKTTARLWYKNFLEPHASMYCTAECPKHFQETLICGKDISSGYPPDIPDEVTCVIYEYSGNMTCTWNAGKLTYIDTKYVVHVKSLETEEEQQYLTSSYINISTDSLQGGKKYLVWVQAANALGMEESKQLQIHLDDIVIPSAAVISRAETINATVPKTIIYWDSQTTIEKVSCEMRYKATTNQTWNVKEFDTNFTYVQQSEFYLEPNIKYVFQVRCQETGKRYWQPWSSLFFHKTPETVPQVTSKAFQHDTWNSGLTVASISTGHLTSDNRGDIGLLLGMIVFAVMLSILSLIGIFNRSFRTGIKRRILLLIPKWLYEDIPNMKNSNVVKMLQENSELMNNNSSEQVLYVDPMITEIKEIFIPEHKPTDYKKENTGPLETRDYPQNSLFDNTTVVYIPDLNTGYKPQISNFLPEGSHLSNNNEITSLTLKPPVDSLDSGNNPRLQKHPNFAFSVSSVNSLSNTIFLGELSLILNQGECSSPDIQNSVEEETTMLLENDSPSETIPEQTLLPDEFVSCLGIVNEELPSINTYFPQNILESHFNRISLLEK
Summary of the method: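 Membranes from HEK293 cells stably expressing Nluc-tagged human IL-23R were incubated 2 h at room temperature with test compound and a fluorophore-labelled tracer. After substrate addition, loss of BRET (TAMRA over luciferase emission) reported tracer displacement. A 4PL fit gave IC50 values.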

[1] = target: IL-23 mediated signalling (Homo sapiens, UniProt Q5VWK5); test: Functional inhibition of IL-23 mediated STAT3 signalling (phospho-STAT3 MSD) in DB cells; type: cell-based; details: for Emax: maximal inhibitory response, read-out: hIL-23 (pSTAT3) antagonist % inhibition
Text: Upon binding of IL-23, the IL-23R forms a heterodimer signalling complex together with IL-12R β1, which through the JAK2/STAT3 pathway promotes phosphorylation of STAT3 to form phospho-STAT3.
For compounds tested in this assay, the response was normalized relative to control values to calculate the IC50 and maximal inhibitory response from a concentration response curve of the compound in presence of a fixed concentration of human IL-23.
The assay procedure was as follows. […] Following preincubation of the DB cells with inhibitor for 15 min in a cell incubator (37 °C, 5% CO2), 20 µL of the prepared 3X the EC80 of hIL-23 solution was added to each well and incubated for 90 min in a cell incubator (37 °C, 5% CO2). For some wells buffer only or IL-23 only corresponding to the EC80 was added to obtain readouts needed for normalization. To terminate the assay, the plate was spun at 1000 G for 5 min to pellet cells, the supernatant removed using an 8-channel manual pipette, and then added 50 µL/well Complete Lysis Buffer from the MSD STAT3 kit (Cat# K150SVD, Mesoscale) to the cell pellet. To completely lyse cells to release phospho-STAT3 for detection, the plate was shaken for 10 min at room temperature (500 rpm) sealed with aluminium foil and placed at -80 °C for a minimum of 15 min. Detection of the phospho-STAT3 level in the cell lysate from the individual wells was determined using the MSD STAT3 kit (Cat# K150SVD, Mesoscale) and read on a Meso QuickPlex SQ 120 plate reader (Mesoscale).
For data analysis raw data counts from the Meso QuickPlex SQ 120 plate reader were normalized relative to the response by the EC80 of h1L-23 alone (no compound added) and the buffer level. Compound potency (IC50) and maximal inhibitory response (% inhibition) were estimated by computer-aided curve fitting using a 4-parameter logistic (4PL) nonlinear model. […] Table 3-2: hIL-23 (pSTAT3) antagonist IC50 and % inhibition

[2] = Table 3-2, DB cells, hIL-23 at EC80

| SMILES | % displacement (hIL-23R NIuc) (human IL-23R) [%] | IC50 (human IL-23R) [nM] | Emax [1, 2] [%] | Emax (human IL-23R) [%] | IC50 ([1]; Table 3-2, DB cells, hIL-23 at EC80, read-out: hIL-23 (pSTAT3) antagonist IC50) [nM] | Ki (human IL-23R) [nM] | IC50 [1] [nM] |
| --- | --- | --- | --- | --- | --- | --- | --- |
| CC(=O)N[C@H]1CCCCNC(=O)CC[C@@H](C(=O)N[C@@H](CCN)C(=O)N[C@@H](Cc2cccnc2)C(N)=O)NC(=O)[C@](C)(CC(C)C)NC(=O)[C@H](Cc2ccc3ccccc3c2)NC(=O)[C@H](Cc2ccc(OCCN)cc2)NC(=O)[C@@H]2CSCC(=O)CSC[C@H](NC(=O)[C@H]([C@@H](C)O)NC1=O)C(=O)N[C@@H](Cc1c[nH]c3ccccc13)C(=O)N[C@@H](CCC(N)=O)C(=O)N2 [Ref 155, [Ac]-K(1c)TC(2a)WQC(2a)[Y(2-aminoethoxy)][2-Nal][2-Me-Leu]E(1c)[Dab][3-(3-Pyridyl)-Ala]-[NH2], reference compound] (Ac-KTCWQC[AEF][2Nal][αMeL]E[Dab][3Pal]-NH2; lactam 1-10; linker 3-6 via CH2COCH2) | 97 | 0.0099 | 100 | – | – | 0.00805 | 0.031 |
| CC(C)C[C@]1(C)NC(=O)[C@H](Cc2ccc3ccccc3c2)NC(=O)[C@H](Cc2ccc(OCCN)cc2)NC(=O)[C@@H]2CCC(=O)N[C@@H](CCCNC(=O)CC[C@@H](C(=O)N[C@@H](CCN)C(=O)N[C@@H](Cc3cccnc3)C(N)=O)NC1=O)CC(=O)N[C@@H]([C@@H](C)O)C(=O)N[C@@H](C(C)C)C(=O)N[C@@H](Cc1c[nH]c3ccccc13)C(=O)N[C@@H](CCC(N)=O)C(=O)N2 [Compound 12, [bLys](1c)(6c)^†TVWQE(6c)[Y(2-aminoethoxy)][2-Nal][2-Me-Leu]E(1c)[Dab][3-(3-Pyridyl)-Ala]-[NH2]] (TVWQE[AEF][2Nal][αMeL]E[Dab][3Pal]-NH2; linker N-5-9 via X7) | 104 | – | 100 | – | – | – | – |

The next lines start with results.

| % displacement (hIL-23R NIuc) (human IL-23R) [%] | IC50 (human IL-23R) [nM] | Emax [1, 2] [%] | Emax (human IL-23R) [%] | IC50 ([1]; Table 3-2, DB cells, hIL-23 at EC80, read-out: hIL-23 (pSTAT3) antagonist IC50) [nM] | SMILES | Ki (human IL-23R) [nM] | IC50 [1] [nM] |
| --- | --- | --- | --- | --- | --- | --- | --- |
| – | 0.29 | 97 | 100 | – | CNC(=O)[C@H](Cc1cccnc1)NC(=O)[C@H](CCN)NC(=O)[C@@H]1CCC(=O)NCCCC[C@@H]2NC(=O)CC[C@H](NC(=O)[C@H](CCC(N)=O)NC(=O)[C@H](Cc3c[nH]c4ccccc34)NC(=O)[C@H]([C@@H](C)O)NC2=O)C(=O)N[C@@H](Cc2ccc(OCCN)cc2)C(=O)N[C@@H](Cc2ccc3ccccc3c2)C(=O)N[C@@](C)(CC(C)C)C(=O)N1 [Compound 36, K(1c)(6c)^†TWQE(6c)[Y(2-aminoethoxy)][2-Nal][2-Me-Leu]E(1c)[Dab][3-(3-Pyridyl)-Ala]-[NHMe]] (KTWQE[AEF][2Nal][αMeL]E[Dab][3Pal]-NHMe; lactam 1-9, N-5) | – | – |
| 98 | 0.64 | 99 | – | – | CNC(=O)[C@H](Cc1cccnc1)NC(=O)[C@H](CCN)NC(=O)[C@@H]1CCCCNC(=O)CC[C@@H]2NC(=O)CC[C@H](NC(=O)[C@H](CCC(N)=O)NC(=O)[C@H](Cc3c[nH]c4ccccc34)NC(=O)[C@H]([C@@H](C)O)NC2=O)C(=O)N[C@@H](Cc2ccc(OCCN)cc2)C(=O)N[C@@H](Cc2ccc3ccccc3c2)C(=O)N[C@@](C)(CC(C)C)C(=O)N1 [Compound 39, E(1c)(6c)^†TWQE(6c)[Y(2-aminoethoxy)][2-Nal][2-Me-Leu]K(1c)[Dab][3-(3-Pyridyl)-Ala]-[NHMe]] (ETWQE[AEF][2Nal][αMeL]K[Dab][3Pal]-NHMe; lactam 1-9, N-5) | – | – |
| – | 0.091 | 101 | 105 | 1.5 | CC(C)C[C@]1(C)NC(=O)[C@H](Cc2ccc3ccccc3c2)NC(=O)[C@H](Cc2ccc(OCCN)cc2)NC(=O)[C@@H]2CC(=O)N[C@H](CCCCNC(=O)CC[C@@H](C(=O)N[C@@H](CCN)C(=O)N[C@@H](Cc3cccnc3)C(N)=O)NC1=O)C(=O)N[C@@H]([C@@H](C)O)C(=O)N[C@@H](C(C)C)C(=O)N[C@@H](Cc1c[nH]c3ccccc13)C(=O)N[C@@H](CCC(N)=O)C(=O)N2 [Compound 3, [{d}K](1c)(6c)^†TVWQD(6c)[Y(2-aminoethoxy)][2-Nal][2-Me-Leu]E(1c)[Dab][3-(3-Pyridyl)-Ala]-[NH2]] ([dK]TVWQD[AEF][2Nal][αMeL]E[Dab][3Pal]-NH2; lactam 1-10, N-6) | – | – |
